Earlier results as cited in patent US8053472B2, “Use of the acetyl L-carnitine in association with the biotin for the treatment of patients with type 2 insulin-resistant diabetes mellitus” (Sigma-Tau Industrie Farmaceutiche Riunite S.p.A., priority 2001, dated 2011).

System: hypertriglyceridemic rats with noninsulin-dependent diabetes mellitus
Details: high doses of biotin added to the diet

In the case of `O=C(O)CCCC[C@@H]1SC[C@@H]2NC(=O)N[C@@H]21` [biotin], the “altered tolerance to glucose” value is listed as “improves”.
